Earlier results on 4 molecules are cited in patent publication US20060051490A1, “Food component and processes for the preparation thereof” (priority 2003, published 2006).

SMILES strings stand for the structures.

For this data set the following is noted: for solubility in 100 parts of water: in 100 parts of water at room temperature, approximate.

Turning to `CC(O)C(=O)O` (stereo not shown) [lactic acid], the miscibility with water result is “miscible with water in all proportions”.
For the molecule `O=C(O)/C=C/C(=O)O` [fumaric, fumaric acid], the “solubility in 100 parts of water” value is ~1.5 parts.
With `O=C(O)CC(O)C(=O)O` (stereo not shown) [malic, malic acid], the “solubility in 100 parts of water” value was ~150 parts.
Take `CC(=O)O` [Acetic acid, acetic acid]: the miscibility with water entry is recorded as “miscible with water in all proportions”.
